“And” between values parts separate entries of the source, which are not always exact repeats. Equal entries are not always repeated. Toxic doses and inconclusive results are not listed. Rule as the data show it: active = T/C of 150% or more; inactive = T/C below 125%.
Tested on: L1210 leukemia ip in BDF1 mice, survival T/C
Test: NCI In Vivo Anticancer Drug Screen. Data for tumor model L1210 Leukemia (intraperitoneal) in B6D2F1 (BDF1) mice
Settings: endpoint: mean survival time, higher = longer survival
Method in brief: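 In this screen, tumor-bearing mice given compound are compared to those given vehicle, and their survival values are reported as a treated-to-control quotient.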

[1] = dose: 100.0 mg/kg/injection, schedule: Q01DX009 (ip), vehicle: Klucel (hydroxypropylcellulose) (HPC)
[2] = dose: 200.0 mg/kg/injection, schedule: Q01DX009 (ip), vehicle: Klucel (hydroxypropylcellulose) (HPC)
[3] = dose: 400.0 mg/kg/injection, schedule: Q01DX009 (ip), vehicle: Klucel (hydroxypropylcellulose) (HPC)
[4] = dose: 200.0 mg/kg/injection, schedule: Q04DX003 (ip), vehicle: Klucel (hydroxypropylcellulose) (HPC)
[5] = dose: 400.0 mg/kg/injection, schedule: Q04DX003 (ip), vehicle: Klucel (hydroxypropylcellulose) (HPC)
[6] = dose: 100.0 mg/kg/injection, schedule: Q01DX001 (ip), vehicle: saline
[7] = dose: 200.0 mg/kg/injection, schedule: Q01DX001 (ip), vehicle: saline
[8] = dose: 400.0 mg/kg/injection, schedule: Q01DX001 (ip), vehicle: saline
[9] = dose: 100.0 mg/kg/injection, schedule: Q04DX003 (ip), vehicle: saline with Tween-80
[10] = dose: 200.0 mg/kg/injection, schedule: Q04DX003 (ip), vehicle: saline with Tween-80
[11] = dose: 400.0 mg/kg/injection, schedule: Q04DX003 (ip), vehicle: saline with Tween-80
[12] = dose: 100.0 mg/kg/injection, schedule: Q04DX002 (ip), vehicle: Klucel (hydroxypropylcellulose) (HPC)
[13] = dose: 200.0 mg/kg/injection, schedule: Q04DX002 (ip), vehicle: Klucel (hydroxypropylcellulose) (HPC)
[14] = dose: 400.0 mg/kg/injection, schedule: Q04DX002 (ip), vehicle: Klucel (hydroxypropylcellulose) (HPC)
[15] = dose: 100.0 mg/kg/injection, schedule: Q04DX003 (ip), vehicle: saline
[16] = dose: 200.0 mg/kg/injection, schedule: Q04DX003 (ip), vehicle: saline
[17] = dose: 400.0 mg/kg/injection, schedule: Q04DX003 (ip), vehicle: saline
[18] = dose: 100.0 mg/kg/injection, schedule: Q04DX002 (ip), vehicle: saline
[19] = dose: 200.0 mg/kg/injection, schedule: Q04DX002 (ip), vehicle: saline
[20] = dose: 50.0 mg/kg/injection, schedule: Q01DX001 (ip), vehicle: saline
[21] = dose: 50.0 mg/kg/injection, schedule: Q01DX009 (ip), vehicle: saline
[22] = dose: 100.0 mg/kg/injection, schedule: Q01DX009 (ip), vehicle: saline
[23] = dose: 200.0 mg/kg/injection, schedule: Q01DX009 (ip), vehicle: saline
[24] = dose: 200.0 mg/kg/injection, schedule: Q01DX009 (ip), vehicle: other
[25] = dose: 400.0 mg/kg/injection, schedule: Q01DX009 (ip), vehicle: other
[26] = dose: 100.0 mg/kg/injection, schedule: Q04DX003 (ip), vehicle: Klucel (hydroxypropylcellulose) (HPC)

Measured: T/C

CC(=O)c1c(O)cc(C)c(Cl)c1C
inactive: [1] 94 % of control | [2] 100 % of control | [3] 103 % of control

NC(=S)SCCC(=O)O
inactive: [1] 96 % of control | [2] 100 % of control | [4] 93 % of control | [3] 94 % of control | [5] 92 % of control

O=C(Nc1ccc(NC(=O)Nc2cc(C3=NCCN3)cc(C3=NCCN3)c2)cc1)Nc1cc(C2=NCCN2)cc(C2=NCCN2)c1
inactive: dose: 15.0 mg/kg/injection, schedule: Q01DX Z (ip), vehicle: saline 90 % of control

O=C(O)c1cc(-c2ccccc2Cl)nc2ccccc12
inactive: [6] 96 % of control | [7] 94 % of control | [8] 97 % of control

COC(=O)c1cc(C(C)=O)ccc1OC(=O)c1ccccc1
inactive: dose: 100.0 mg/kg/injection, schedule: Q01DX009 (ip), vehicle: saline with Tween-80 98 % of control | [9] 88 % of control | dose: 200.0 mg/kg/injection, schedule: Q01DX009 (ip), vehicle: saline with Tween-80 94 % of control | [10] 90 % of control | dose: 400.0 mg/kg/injection, schedule: Q01DX009 (ip), vehicle: saline with Tween-80 100 % of control | [11] 108 % of control

O=C1/C(=C\c2ccc(OCc3ccccc3)cc2)N2CCC1CC2
inactive: [9] 97 % of control | [10] 95 % of control | [11] 87 % of control

FC(F)(F)c1cccc(-n2nncc2-c2ccc(Cl)cc2)c1
inactive: [12] 96 % of control | [13] 101 % of control | [14] 96 % of control

CC(=O)c1cc(C)c(C)cc1C
inactive: dose: 100.0 mg/kg/injection, schedule: Q01DX001 (ip), vehicle: carboxymethylcellulose (CMC) 100 % of control | dose: 200.0 mg/kg/injection, schedule: Q01DX001 (ip), vehicle: carboxymethylcellulose (CMC) 94 % of control | dose: 400.0 mg/kg/injection, schedule: Q01DX001 (ip), vehicle: carboxymethylcellulose (CMC) 97 % of control

CCC(CO)NC(=O)C(O)C(O)C(O)C(O)CO (configuration not stated)
inactive: [15] 94 % of control | [16] 97 % of control | [17] 94 % of control

CSCCNC(=O)CS(=O)(=O)c1ccc(C)cc1
inactive: [9] 100 % of control | [10] 100 % of control | [11] 92 % of control

CCCCS(=O)/C=C\S(=O)CCCC (configuration not stated)
inactive: [18] 117 % of control | [19] 106 % of control

CCOC(=O)CC1C(C)C(C)NC(C)C1C (configuration not stated)
inactive: dose: 75.0 mg/kg/injection, schedule: Q01DX001 (ip), vehicle: saline 94 % of control | dose: 150.0 mg/kg/injection, schedule: Q01DX001 (ip), vehicle: saline 103 % of control

CCCC(=O)OC1=CC(=O)c2ccccc2C1=O
inactive: dose: 75.0 mg/kg/injection, schedule: Q01DX001 (ip), vehicle: other 94 % of control | dose: 150.0 mg/kg/injection, schedule: Q01DX001 (ip), vehicle: other 89 % of control

C[n+]1ccccc1C=O
inactive: [20] 100 % of control | [21] 102 % of control and 103 % of control | dose: 50.0 mg/kg/injection, schedule: Q04DX003 (ip), vehicle: saline 98 % of control | [6] 100 % of control | [22] 104 % of control and 113 % of control | [18] 97 % of control and 105 % of control | [15] 88 % of control | [7] 103 % of control | [23] 102 % of control and 109 % of control | [19] 102 % of control and 105 % of control | [16] 107 % of control | dose: 400.0 mg/kg/injection, schedule: Q04DX002 (ip), vehicle: saline 101 % of control

CS(=O)(=O)/C=C\c1ccccc1
inactive: [15] 101 % of control | [16] 95 % of control | [17] 103 % of control

COc1ccc2c(OC)cccc2c1
inactive: dose: 100.0 mg/kg/injection, schedule: Q01DX009 (ip), vehicle: other 87 % of control | [24] 91 % of control | [25] 91 % of control

CC(=O)Nc1ccc2cnn(C(C)=O)c2c1
inactive: dose: 50.0 mg/kg/injection, schedule: Q01DX009 (ip), vehicle: water 94 % of control | dose: 100.0 mg/kg/injection, schedule: Q01DX009 (ip), vehicle: water 98 % of control | dose: 100.0 mg/kg/injection, schedule: Q04DX003 (ip), vehicle: water 104 % of control | dose: 200.0 mg/kg/injection, schedule: Q01DX009 (ip), vehicle: water 100 % of control | dose: 200.0 mg/kg/injection, schedule: Q04DX003 (ip), vehicle: water 94 % of control | dose: 400.0 mg/kg/injection, schedule: Q04DX003 (ip), vehicle: water 106 % of control

c1cc2cc3c(cc2cc1CC1=NCCc2cc4c(cc21)OCO4)OCO3
inactive: dose: 100.0 mg/kg/injection, schedule: Q04DX003 (ip), vehicle: other 94 % of control | [24] 102 % of control | dose: 200.0 mg/kg/injection, schedule: Q04DX003 (ip), vehicle: other 108 % of control | [25] 94 % of control | dose: 400.0 mg/kg/injection, schedule: Q04DX003 (ip), vehicle: other 105 % of control

O=P(Oc1ccccc1)(Oc1ccccc1)C(Nc1ccccc1)c1ccccc1 (configuration not stated)
inactive: [11] 90 % of control

CCCS(=O)(=O)N1CC(C)OC(C)C1 (configuration not stated)
inactive: [12] 91 % of control | [13] 91 % of control | [14] 89 % of control

Cc1nc2[nH][nH]c(=O)c2nc1C
inactive: dose: 50.0 mg/kg/injection, schedule: Q01DX009 (ip), vehicle: Klucel (hydroxypropylcellulose) (HPC) 94 % of control | [1] 100 % of control | [26] 97 % of control | [2] 94 % of control | [4] 105 % of control | [5] 102 % of control

CC(C)c1ccccc1OS(=O)(=O)c1ccccc1
inactive: [9] 91 % of control | [10] 95 % of control | [11] 98 % of control

O=c1[nH]c2ncccc2c(=O)n1OS(=O)(=O)c1ccccc1
inactive: [20] 102 % of control | [21] 98 % of control | [6] 96 % of control | [22] 106 % of control | [7] 93 % of control | [23] 98 % of control | [8] 96 % of control

COC(=O)/C=C/C(=O)OC
inactive: dose: 25.0 mg/kg/injection, schedule: Q04DX002 (ip), vehicle: Klucel (hydroxypropylcellulose) (HPC) 97 % of control | dose: 50.0 mg/kg/injection, schedule: Q04DX002 (ip), vehicle: Klucel (hydroxypropylcellulose) (HPC) 100 % of control | [12] 103 % of control | [26] 104 % of control | [15] 101 % of control | [4] 101 % of control | [16] 107 % of control | [5] 112 % of control | [17] 103 % of control

Source: PubChem BioAssay AID248 (DTP/NCI, 2004)
